A short description of this data set: Human HepG2 cell viability assay in 384 well format. Format: toxicity, cell-based. To be noted: HepG2 cells, read-out: Inhibition. More on the design: dose 125 nL, time 70.5 hour; cytotoxicity at 70.5 h: concentration not given beside the values.

Consider 39 compounds from ChEMBL document CHEMBL3507680, “University of Dundee, Gates Library screen for HepG2 cell viability”.

Take `CC(C)N(CC(N)=O)Cc1csc(C(C)(C)C)n1`: the cytotoxicity at 70.5 h worked out at 3.87%.

For `O=C1CC(N(C(=O)c2ccc(F)c(F)c2)C2CC2)C(=O)N1` (centres undefined), the cytotoxicity at 70.5 h is -9.51%.

As for `c1cnc(-c2nc(CN3CCCC3Cn3cncn3)cs2)nc1` (centres undefined), the cytotoxicity at 70.5 h is -5.35%.

For `O=C1CC(N(C(=O)c2ccc(F)c(C(F)(F)F)c2)C2CC2)C(=O)N1` (centres undefined), the cytotoxicity at 70.5 h was 0.0677%.

For the compound `CCN1CCN(C2CCN(Cc3noc(C4CC4)n3)CC2)C1=O`, the cytotoxicity at 70.5 h is -3.61%.

In the case of `CC(C)(C)c1n[nH]c(C2CN(Cc3nnc(C4CCC4)o3)CCO2)n1` (centres undefined), the cytotoxicity at 70.5 h was -2.38%.

Turning to `Cc1nc(CN2CCCC(NCCOc3cccc(C#N)c3)C2)no1` (centres undefined), the cytotoxicity at 70.5 h is -2.71%.

`Cc1nc(C)n(CC2CCCN(CCOc3ccc(C#N)cc3)C2)n1` (centres undefined): the cytotoxicity at 70.5 h is -11.5%.

For the compound `CCc1cnc(CN2CCC(N(Cc3noc(CC)n3)C(C)=O)C2)o1` (centres undefined), the cytotoxicity at 70.5 h was -9.22%.

For `CC(NC(=O)NCCn1ccnc1)c1ccc2c(c1)CCC(=O)N2` (centres undefined), the cytotoxicity at 70.5 h is 13.7%.

As for `Cc1cc(C)n(CC2CN(c3cnc4ccccc4n3)CCO2)n1` (centres undefined), the cytotoxicity at 70.5 h is -8.47%.

`Cc1nc(NC(=O)c2ccc(-n3ncc(C#N)c3N)cc2)sc1C`: the cytotoxicity at 70.5 h is 17%.

Turning to `Cc1ccnc(NC(=O)c2ccc(-n3ncc(C#N)c3N)cc2)c1`, the cytotoxicity at 70.5 h was -6.86%.

On to `COc1cccc2cc(CNC(=O)N3CCC(C(N)=O)CC3)oc12`, for which the cytotoxicity at 70.5 h was -8.48%.

As for `CC(=O)c1cccc(OCC(=O)NS(=O)(=O)c2ccc(Br)s2)c1`, the cytotoxicity at 70.5 h is -2.56%.

On to `CC(=O)c1ccc(OCC(=O)NS(=O)(=O)c2ccc(C)s2)cc1`, for which the cytotoxicity at 70.5 h is -14%.

On to `O=C1C(NS(=O)(=O)c2ccc(F)cc2F)CCN1Cc1ccccc1` (centres undefined), for which the cytotoxicity at 70.5 h was -7.99%.

Take `COCC(C)NC(=O)c1cc(C)n(-c2cccc(OC)c2)c1C` (centres undefined): the cytotoxicity at 70.5 h was -5.2%.

As for `COc1cccc(CC(=O)N2CCCC(n3nc(C)cc3C)C2)c1` (centres undefined), the cytotoxicity at 70.5 h is -14.1%.

Turning to `COc1ccc(-c2nnc(CNCCn3cccn3)o2)cc1`, the cytotoxicity at 70.5 h is -9.2%.

Take `Cc1cc(C)n(C2CCCN(C(=O)Cc3cccc(F)c3)C2)n1` (centres undefined): the cytotoxicity at 70.5 h was -9.48%.

As for `Cc1nc(CN2CCCC(NCCCOc3ccc(F)cc3)C2)no1` (centres undefined), the cytotoxicity at 70.5 h is -8.43%.

As to `Cc1ccc(-c2nnc(CNCCn3cccn3)o2)cc1`, the cytotoxicity at 70.5 h turned out to be 13.9%.

Regarding `COc1ccccc1CC(=O)N1CCCC(n2nc(C)nc2C)C1` (centres undefined), the cytotoxicity at 70.5 h is -13%.

Regarding `CCc1nc(CN(C(C)=O)C2CCN(CCc3ccccn3)C2)no1` (centres undefined), the cytotoxicity at 70.5 h was -11.5%.

For the compound `Cc1nc(C)n(CC2CCCN2CCOc2cccc(F)c2)n1` (centres undefined), the cytotoxicity at 70.5 h is -9.85%.

As for `CC(C)c1n[nH]c(C2CN(C(=O)c3cc4c(s3)CCC4)CCO2)n1` (centres undefined), the cytotoxicity at 70.5 h was -8.59%.

As for `Cc1nc(C)n(CC2CCCCN2CCOc2cccc(C#N)c2)n1` (centres undefined), the cytotoxicity at 70.5 h is -7.98%.

Turning to `O=C(c1cnc2c(cnn2C2CCCC2)c1)N1CCN(CCO)CC1`, the cytotoxicity at 70.5 h was 2.02%.

With `Cc1cc(C2CCCN(CCS(=O)(=O)c3ccccc3)C2)n[nH]1` (centres undefined), the cytotoxicity at 70.5 h was -8.26%.

For the compound `Cc1ccc(-c2nc(CNCC3CN(C)CCO3)co2)c(C)c1` (centres undefined), the cytotoxicity at 70.5 h turned out to be 5.24%.

With `Cc1cc(C2CCCN(CCCS(C)(=O)=O)C2)n[nH]1` (centres undefined), the cytotoxicity at 70.5 h is -4.49%.

On to `Cc1noc(C(C)C)c1C(=O)NCC(c1cccs1)N(C)C` (centres undefined), for which the cytotoxicity at 70.5 h was -8.63%.

Regarding `CCN(CC)C(=O)C1CCCN1C(=O)c1cccc(-n2cnnn2)c1` (centres undefined), the cytotoxicity at 70.5 h is -4.16%.

`Cc1ccc(-c2nc(CNCC3CN(C)CCO3)co2)cc1` (centres undefined): the cytotoxicity at 70.5 h is -2.95%.

`Cc1cc(C2CCCN(CCNS(=O)(=O)c3ccccc3)C2)n[nH]1` (centres undefined): the cytotoxicity at 70.5 h was 24.5%.

For the compound `O=C(CCCc1ccccc1)N1CCCC(n2cncn2)C1` (centres undefined), the cytotoxicity at 70.5 h was -4.48%.

Regarding `Cc1nc(CSCCC(=O)NCc2ccc(-n3cncn3)nc2)cs1`, the cytotoxicity at 70.5 h was determined as 24.6%.

In the case of `Cc1cc(C)n(CC2CCCN2C(=O)c2c[nH]c3ncccc23)n1` (centres undefined), the cytotoxicity at 70.5 h was 27.2%.
